Source: PubChem BioAssay (NCI)
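Dose response: 5 concentrations. Exposure: 48 h. Format: 96-well plates. Endpoint: linear interpolation; highest concentration if not reached. The concentration for 50% growth inhibition is given as GI50. TGI: total growth inhibition.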

Key:
Assay in all cases: inhibition of tumour cell growth, NCI panel, 48 h
A549 NSCLC = tested on: A549 NSCLC
CCRF-CEM leukemia = tested on: CCRF-CEM leukemia
COLO 205 colon = tested on: COLO 205 colon
HCC-2998 colon = tested on: HCC-2998 colon
HCT-15 colon = tested on: HCT-15 colon
HOP-62 NSCLC = tested on: HOP-62 NSCLC
HS 578T breast = tested on: HS 578T breast
HT29 colon = tested on: HT29 colon
IGROV1 ovarian = tested on: IGROV1 ovarian
LOX IMVI melanoma = tested on: LOX IMVI melanoma
M14 melanoma = tested on: M14 melanoma
NCI/ADR-RES ovarian = tested on: NCI/ADR-RES ovarian
OVCAR-4 ovarian = tested on: OVCAR-4 ovarian
OVCAR-5 ovarian = tested on: OVCAR-5 ovarian
RXF 393 renal = tested on: RXF 393 renal
SF-268 CNS = tested on: SF-268 CNS
SK-MEL-2 melanoma = tested on: SK-MEL-2 melanoma
SNB-75 CNS = tested on: SNB-75 CNS

Structure (SMILES) | TGI (A549 NSCLC) [µM] | TGI (CCRF-CEM leukemia) [µM] | TGI (COLO 205 colon) [µM] | TGI (HCC-2998 colon) [µM] | TGI (HCT-15 colon) [µM] | TGI (HOP-62 NSCLC) [µM] | TGI (HS 578T breast) [µM] | TGI (HT29 colon) [µM] | GI50 (IGROV1 ovarian) [µM] | TGI (IGROV1 ovarian) [µM] | GI50 (LOX IMVI melanoma) [µM] | TGI (LOX IMVI melanoma) [µM] | TGI (M14 melanoma) [µM] | TGI (NCI/ADR-RES ovarian) [µM] | TGI (OVCAR-4 ovarian) [µM] | TGI (OVCAR-5 ovarian) [µM] | TGI (RXF 393 renal) [µM] | TGI (SF-268 CNS) [µM] | TGI (SK-MEL-2 melanoma) [µM] | TGI (SNB-75 CNS) [µM]
Cc1ccc(C2N=C(N)NC3=C2CCOc2c3ccc3ccccc23)cc1 (configuration not stated) | > 64.6 | 3.71 | > 61.6 | 76.4 | > 60.1 | 35.1 | 67.7 | > 66.7 | 44.6 | > 100 | 9.98 | 38.9 | > 55.9 | > 60.5 | > 83.7 | > 77.1 | 97.9 | > 75.6 | > 100 | > 78.6
Cn1cc(S(=O)(=O)NC(=O)Nc2ccc(Cl)cc2)c2ccccc21 | > 100 | > 100 | > 100 | > 100 | 20.7 | > 100 | > 100 | > 100 | – | > 100 | – | > 100 | > 100 | > 100 | > 100 | > 100 | > 100 | > 100 | > 100 | > 100
O=c1cc(N2CCCC2)[nH]c(=O)n1-c1ccc(F)cc1 | > 100 | > 100 | > 100 | > 100 | > 100 | > 100 | > 100 | > 100 | – | > 100 | – | > 100 | > 100 | > 100 | > 100 | > 100 | > 100 | > 100 | > 100 | > 100
CCOC(=O)C1=c2[nH]c3cccc4cccc(c43)n2C(=O)CC1c1ccccc1 (configuration not stated) | > 100 | > 100 | > 100 | > 100 | > 100 | > 100 | > 100 | > 100 | – | > 100 | – | > 100 | > 100 | > 100 | > 100 | > 100 | > 100 | > 100 | > 100 | > 100
C[N+](C)(C)/N=C/c1ccc(O)c(O)c1 | > 100 | > 100 | > 100 | > 100 | > 100 | > 100 | > 100 | > 100 | – | > 100 | – | > 100 | > 100 | > 100 | > 100 | > 100 | > 100 | > 100 | > 100 | > 100
CN1C(=O)C(C(N)=O)C2CC1(C)Oc1ccccc12 (configuration not stated) | > 100 | > 100 | > 100 | > 100 | > 100 | > 100 | > 100 | > 100 | – | > 100 | – | > 100 | > 100 | > 100 | > 100 | > 100 | > 100 | > 100 | > 100 | > 100
Cc1c(-c2ccccc2)c(C#N)c2nnn(C3CCCCC3)c(=O)n12 | > 100 | > 100 | > 100 | > 100 | > 100 | 46.6 | > 100 | > 100 | – | > 100 | – | > 100 | > 100 | > 100 | > 100 | > 100 | 71.7 | > 100 | > 100 | 68.8
O=C(O)CC1NC(/C(=C/c2ccccc2O)NC(=O)c2ccccc2)OC1=O (configuration not stated) | > 100 | > 100 | > 100 | > 100 | > 100 | 29.5 | > 100 | > 100 | – | > 70.9 | – | > 100 | > 100 | > 100 | > 38.2 | > 100 | 99.2 | > 45.1 | > 100 | > 63.6
COC(CC1(/C=C/O[Si](C(C)C)(C(C)C)C(C)C)C(=O)N(COCC[Si](C)(C)C)c2ccccc21)OC (configuration not stated) | > 100 | > 100 | > 100 | > 100 | > 100 | > 100 | > 100 | > 100 | – | 59.9 | – | 52.9 | > 100 | > 100 | > 100 | > 100 | 29.5 | 38.4 | 26.8 | > 100
COC(=O)C(C(=O)C(=O)Nc1ccccc1C#N)c1nc2ccc([N+](=O)[O-])cc2[nH]c1=O (configuration not stated) | > 100 | > 100 | > 100 | > 100 | > 100 | > 100 | > 100 | > 100 | – | > 100 | – | > 100 | > 100 | > 100 | > 100 | > 100 | > 100 | > 100 | > 100 | > 100
